# Patent US20050197338A1, “Substituted pyrazole urea compounds for the treatment of inflammation” (priority 2003, published 2005)
# Target: T1, human IKK-2 (rhIKK-2 homodimer) (Homo sapiens, UniProt O14920)
# T1 construct: FLAG (DYKDDDDKD) (C); made in house; host or cells: insect cells (baculovirus, pFastBac)
# T1 sequence (O14920 1-756): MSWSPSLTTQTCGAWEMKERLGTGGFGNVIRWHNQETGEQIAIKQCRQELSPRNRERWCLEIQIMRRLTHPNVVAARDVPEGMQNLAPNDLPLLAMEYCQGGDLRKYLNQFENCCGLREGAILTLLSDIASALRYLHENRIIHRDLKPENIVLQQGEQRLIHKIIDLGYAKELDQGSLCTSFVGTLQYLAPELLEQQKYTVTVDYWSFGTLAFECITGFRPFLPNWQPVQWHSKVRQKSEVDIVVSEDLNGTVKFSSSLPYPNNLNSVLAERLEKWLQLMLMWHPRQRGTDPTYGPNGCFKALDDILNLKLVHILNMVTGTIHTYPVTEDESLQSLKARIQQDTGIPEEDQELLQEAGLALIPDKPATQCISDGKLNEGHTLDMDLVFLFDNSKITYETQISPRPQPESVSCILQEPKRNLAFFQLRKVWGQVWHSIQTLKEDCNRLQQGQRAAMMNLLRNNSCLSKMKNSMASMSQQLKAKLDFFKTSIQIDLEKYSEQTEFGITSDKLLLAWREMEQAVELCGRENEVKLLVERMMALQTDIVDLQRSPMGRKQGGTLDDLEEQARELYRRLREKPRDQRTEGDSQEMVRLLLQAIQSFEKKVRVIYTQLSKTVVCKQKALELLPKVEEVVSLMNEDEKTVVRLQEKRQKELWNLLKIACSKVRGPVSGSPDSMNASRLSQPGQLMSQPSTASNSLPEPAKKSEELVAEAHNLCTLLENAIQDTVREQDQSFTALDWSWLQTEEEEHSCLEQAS
# Experiment: IKK-2 Resin Enzyme Assay (Human IKK-2 Enzyme Assay)
# Format: biochemical
# Settings: human IKK-2, resin enzyme assay; read-out: IC50 (μM) hIKK-2
# Summary of the method: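 C-terminally FLAG-tagged human IKK-2 homodimer, baculovirus-expressed in insect cells and anti-FLAG purified. Reaction mix: 5 μM biotinylated IκBα peptide (Ser32/Ser36 region), 1 μM ATP with [γ-33P]ATP, 2 mM MgCl2, 2 mM MnCl2, 10 mM NaF, 1 mM DTT, 25 mM HEPES pH 7.6. Incubated 30 min at 25 °C; IC50 derived.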
row,Compound,IC50 [µM]
1,"CCOc1cc(-n2cc(NC(N)=O)c(C(N)=O)n2)ccc1-c1ccccc1O [Example 232, 4-[(aminocarbonyl)amino]-1-(2-ethoxy-2′-hydroxy-1,1′-biphenyl-4-yl)-1H-pyrazole-3-carboxamide]",10.3
2,"CSc1ccc(-c2cccc(-n3cc(NC(N)=O)c(C(N)=O)n3)c2)cc1 [Example 358, 4-[(aminocarbonyl)amino]-1-[4′-(methylthio)-1,1′-biphenyl-3-yl]-1H-pyrazole-3-carboxamide]",8.57
3,"NC(=O)Nc1cn(-c2ccc(-c3ccc(C(N)=O)cc3)cc2)nc1C(N)=O [Example 149, 4-[(aminocarbonyl)amino]-1-[4′-(aminocarbonyl)-1,1′-biphenyl-4-yl]-1H-pyrazole-3-carboxamide]",0.05
4,"NC(=O)Nc1cn(-c2cccc(-c3ccc(F)c(Cl)c3)c2)nc1C(N)=O [Example 361, 4-[(aminocarbonyl)amino]-1-(3′-chloro-4′-fluoro-1,1′-biphenyl-3-yl)-1H-pyrazole-3-carboxamide]",> 20
5,"NC(=O)Nc1cn(-c2cccc(-c3ccc(Cl)cc3)c2)nc1C(N)=O [Example 348, 4-[(aminocarbonyl)amino]-1-(4′-chloro-1,1′-biphenyl-3-yl)-1H-pyrazole-3-carboxamide]",> 20
6,"NC(=O)Nc1cn(-c2ccc(-c3ccccc3O)c(C(F)(F)F)c2)nc1C(N)=O [Example 234, 4-[(aminocarbonyl)amino]-1-[2′-hydroxy-2-(trifluoromethyl)-1,1′-biphenyl-4-yl]-1H-pyrazole-3-carboxamide]",1.71
7,"NCc1ccc(-c2cccc(-n3cc(NC(N)=O)c(C(N)=O)n3)c2)cc1 [Example 52, 4-[(aminocarbonyl)amino]-1-[4′-(aminomethyl)-1,1′-biphenyl-3-yl]-1H-pyrazole-3-carboxamide]",4.86
8,"CCOC(=O)c1ccc(-c2ccc(-n3cc(NC(N)=O)c(C(N)=O)n3)cc2)cc1 [Example 147, ethyl 4′-{3-(aminocarbonyl)-4-[(aminocarbonyl)amino]-1H-pyrazol-1-yl}-1,1′-biphenyl-4-carboxylate]",6.01
9,"NC(=O)COc1ccc(F)cc1-c1ccc(-n2cc(NC(N)=O)c(C(N)=O)n2)cc1 [Example 252, 4-[(aminocarbonyl)amino]-1-[2′-(2-amino-2-oxoethoxy)-5′-fluoro-1,1′-biphenyl-4-yl]-1H-pyrazole-3-carboxamide]",0.492
10,"NC(=O)Nc1cn(-c2cccc(-c3ccc4c(c3)OCO4)c2)nc1C(N)=O [Example 62, 4-[(aminocarbonyl)amino]-1-[3-(1,3-benzodioxol-5-yl)phenyl]-1H-pyrazole-3-carboxamide]",7.91
11,"CCc1ccc(-c2cccc(-n3cc(NC(N)=O)c(C(N)=O)n3)c2)cc1 [Example 342, 4-[(aminocarbonyl)amino]-1-(4′-ethyl-1,1′-biphenyl-3-yl)-1H-pyrazole-3-carboxamide]",> 20
12,"NC(=O)Nc1cn(-c2ccc(C(=O)N3CCOCC3)cc2)nc1C(N)=O [Example 9, 4-[(aminocarbonyl)amino]-1-[4-(morpholin-4-yl-carbonyl)phenyl]-1H-pyrazole-3-carboxamide]",1.43
13,"CNC(=O)c1ccc(-c2ccc(-n3cc(NC(N)=O)c(C(N)=O)n3)cc2)cc1F [Example 152, 4-[(aminocarbonyl)amino]-1-{3′-fluoro-4′-[(methylamino)carbonyl]-1,1′-biphenyl-4-yl}-1H-pyrazole-3-carboxamide]",0.11
14,NC(=O)Nc1nn(-c2ccc(-c3ccc(C4CCCCC4)cc3)cc2)cc1C(N)=O [Example 140],> 20
15,"CCN(CC)C(=O)c1ccc(-c2ccc(-n3cc(NC(N)=O)c(C(N)=O)n3)cc2)cc1 [Example 143, 4-[(aminocarbonyl)amino]-1-{4′-[(diethylamino)carbonyl]-1,1′-biphenyl-4-yl}-1H-pyrazole-3-carboxamide]",3.31
16,"NC(=O)Nc1cn(-c2cccc(-c3ccc(C4CCCCC4)cc3)c2)nc1C(N)=O [Example 375, 4-[(aminocarbonyl)amino]-1-(4′-cyclohexyl-1,1′-biphenyl-3-yl)-1H-pyrazole-3-carboxamide]",> 20
17,"N#CCOc1cccc(-c2ccc(-n3cc(NC(N)=O)c(C(N)=O)n3)cc2C(F)(F)F)c1 [Example 237, 4-[(aminocarbonyl)amino]-1-[3′-(cyanomethoxy)-2-(trifluoromethyl)-1,1′-biphenyl-4-yl]-1H-pyrazole-3-carboxamide]",3.9
18,"CC(=O)c1ccccc1-c1cccc(-n2cc(NC(N)=O)c(C(N)=O)n2)c1 [Example 91, 1-(2′-acetyl-1,1′-biphenyl-3-yl)-4-[(aminocarbonyl)amino]-1H-pyrazole-3-carboxamide]",3.45

row,Compound,IC50 [µM]
1,"NC(=O)Nc1cn(-c2cccc(I)c2)nc1C(N)=O [Example 195, 1-(3-carbamoyl-1-(3-iodophenyl)-1H-pyrazol-4-yl)urea]",0.387
2,"NC(=O)Nc1cn(-c2ccc(Sc3ccc(O)cc3)cc2)nc1C(N)=O [Example 199, 1-(1-(4-(4-hydroxyphenylthio)phenyl)-3-carbamoyl-1H-pyrazol-4-yl)urea]",6.56
3,"N#Cc1cccc(-c2ccc(-n3cc(NC(N)=O)c(C(N)=O)n3)cc2)c1 [Example 104, 4-[(aminocarbonyl)amino]-1-(3′-cyano-1,1′-biphenyl-4-yl)-1H-pyrazole-3-carboxamide]",0.677
4,"NC(=O)Nc1cn(-c2ccc(-c3ccccc3CO)cc2)nc1C(N)=O [Example 105, 4-[(aminocarbonyl)amino]-1-[2′-(hydroxymethyl)-1,1′-biphenyl-4-yl]-1H-pyrazole-3-carboxamide]",0.351
5,"NC(=O)Nc1cn(-c2ccc(Sc3ccc(F)cc3)cc2)nc1C(N)=O [Example 196, 1-(1-(4-(4-fluorophenylthio)phenyl)-3-carbamoyl-1H-pyrazol-4-yl)urea]",0.718
6,"COc1ccccc1CNC(=O)c1ccc(-c2ccc(-n3cc(NC(N)=O)c(C(N)=O)n3)cc2)cc1F [Example 154, 4-[(aminocarbonyl)amino]-1-(3′-fluoro-4′-{[(2-methoxybenzyl)amino]carbonyl}-1,1′-biphenyl-4-yl)-1H-pyrazole-3-carboxamide]",0.26
7,"Cc1cc(-c2cccc(-n3cc(NC(N)=O)c(C(N)=O)n3)c2)ccn1 [Example 63, 4-[(aminocarbonyl)amino]-1-[3-(2-methylpyridin-4-yl)phenyl]-1H-pyrazole-3-carboxamide]",0.59
8,"NC(=O)Nc1cn(-c2ccc(-c3ccccc3CCC(=O)O)cc2)nc1C(N)=O [Example 379, 3-(4′-{3-(aminocarbonyl)-4-[(aminocarbonyl)amino]-1H-pyrazol-1-yl}-1,1′-biphenyl-2-yl)propanoic acid]",1.95
9,"Cc1cc(-n2cc(NC(N)=O)c(C(N)=O)n2)ccc1-c1cccc(OCC#N)c1 [Example 243, 1-(3′-Cyanomethoxy-2-methyl-biphenyl-4-yl)-4-ureido-1H-pyrazole-3-carboxylic acid amide]",8.11
10,"N#CCc1ccc(-c2ccc(-n3cc(NC(N)=O)c(C(N)=O)n3)cc2)cc1 [Example 37, 4-[(aminocarbonyl)amino]-1-[4′-(cyanomethyl)-1,1′-biphenyl-4-yl]-1H-pyrazole-3-carboxamide]",0.79
11,"N#CCCNC(=O)c1ccc(-c2cccc(-n3cc(NC(N)=O)c(C(N)=O)n3)c2)cc1 [Example 84, 4-[(aminocarbonyl)amino]-1-(4′-{[(2-cyanoethyl)amino]carbonyl}-1,1′-biphenyl-3-yl)-1H-pyrazole-3-carboxamide]",2.06
12,NC(=O)Nc1cn(-c2cccc(-c3cccc(-c4ccccc4)c3)c2)nc1C(N)=O [Example 372],> 20
13,"CS(=O)(=O)Nc1ccc(-c2cccc(-n3cc(NC(N)=O)c(C(N)=O)n3)c2)cc1 [Example 59, 4-[(aminocarbonyl)amino]-1-{4′-[(methylsulfonyl)amino]-1,1′-biphenyl-3-yl}-1H-pyrazole-3-carboxamide]",1.64
14,CSc1ccc(-c2ccc(-n3cc(C(N)=O)c(NC(N)=O)n3)cc2)cc1 [Example 119],0.664
15,"NC(=O)Nc1cn(-c2ccc(C(=O)N3CCCCC3)cc2)nc1C(N)=O [Example 303, 4-[(aminocarbonyl)amino]-1-[4-(piperidin-1-ylcarbonyl)phenyl]-1H-pyrazole-3-carboxamide]",1.4
16,"Cc1cc(-n2cc(NC(N)=O)c(C(N)=O)n2)ccc1-c1cccc(O)c1 [Example 239, 1-(3′-hydroxy-2-methyl-biphenyl-4-yl)-4-ureido-1H-pyrazole-3-carboxylic acid amide]",0.161
17,"CCOc1cccc(-c2cccc(-n3cc(NC(N)=O)c(C(N)=O)n3)c2)c1 [Example 354, 4-[(aminocarbonyl)amino]-1-(3′-ethoxy-1,1′-biphenyl-3-yl)-1H-pyrazole-3-carboxamide]",> 20
